Here are results for 3 compounds from patent publication US6005007A, “Retinoids, methods for their production and use” (priority 1997, dated 1999).

Test [1] concerns the target T1, RARβ (Homo sapiens, UniProt P10826).
T1 sequence (P10826 1-448 isoform P10826-2): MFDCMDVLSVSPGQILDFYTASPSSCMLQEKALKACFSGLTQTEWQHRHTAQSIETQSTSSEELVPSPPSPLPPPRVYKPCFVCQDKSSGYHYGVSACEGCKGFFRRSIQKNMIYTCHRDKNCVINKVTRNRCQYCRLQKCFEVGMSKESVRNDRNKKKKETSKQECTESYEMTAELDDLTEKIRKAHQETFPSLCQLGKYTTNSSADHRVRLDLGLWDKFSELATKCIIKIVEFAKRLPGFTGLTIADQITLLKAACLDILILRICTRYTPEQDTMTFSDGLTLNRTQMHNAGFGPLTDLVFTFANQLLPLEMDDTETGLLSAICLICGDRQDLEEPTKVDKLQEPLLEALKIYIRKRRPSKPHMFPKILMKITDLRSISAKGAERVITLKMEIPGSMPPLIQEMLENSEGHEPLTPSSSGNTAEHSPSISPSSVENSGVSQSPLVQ
Put plainly: Receptor binding, RARβ. The note with it: tritiated retinoid competition.

Test [2] addresses T2, RARγ (Homo sapiens, UniProt P13631).
T2 sequence (P13631 1-454): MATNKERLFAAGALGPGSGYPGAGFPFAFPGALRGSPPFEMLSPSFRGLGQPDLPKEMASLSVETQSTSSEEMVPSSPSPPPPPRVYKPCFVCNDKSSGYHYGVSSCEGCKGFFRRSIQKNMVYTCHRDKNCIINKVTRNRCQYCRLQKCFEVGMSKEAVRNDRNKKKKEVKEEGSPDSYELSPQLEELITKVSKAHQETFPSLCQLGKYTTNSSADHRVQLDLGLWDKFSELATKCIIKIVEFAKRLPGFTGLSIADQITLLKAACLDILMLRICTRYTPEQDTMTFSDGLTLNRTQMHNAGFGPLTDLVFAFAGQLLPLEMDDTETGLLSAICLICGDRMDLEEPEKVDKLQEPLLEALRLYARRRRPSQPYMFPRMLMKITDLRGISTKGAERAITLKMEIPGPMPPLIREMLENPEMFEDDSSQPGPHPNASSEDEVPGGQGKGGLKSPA
Briefly: Co-transfection assay, RARγ agonist activity. The format is cell-based. Further details: expressed in transfected cells; host or cells: CV-1 (African green monkey kidney fibroblasts). The note with it: CV-1 cells, luciferase reporter, read-out: RARγ Pot.

The target in test [3] is T3, RXRβ (Mus musculus, UniProt P28704).
T3 sequence (P28704 1-520): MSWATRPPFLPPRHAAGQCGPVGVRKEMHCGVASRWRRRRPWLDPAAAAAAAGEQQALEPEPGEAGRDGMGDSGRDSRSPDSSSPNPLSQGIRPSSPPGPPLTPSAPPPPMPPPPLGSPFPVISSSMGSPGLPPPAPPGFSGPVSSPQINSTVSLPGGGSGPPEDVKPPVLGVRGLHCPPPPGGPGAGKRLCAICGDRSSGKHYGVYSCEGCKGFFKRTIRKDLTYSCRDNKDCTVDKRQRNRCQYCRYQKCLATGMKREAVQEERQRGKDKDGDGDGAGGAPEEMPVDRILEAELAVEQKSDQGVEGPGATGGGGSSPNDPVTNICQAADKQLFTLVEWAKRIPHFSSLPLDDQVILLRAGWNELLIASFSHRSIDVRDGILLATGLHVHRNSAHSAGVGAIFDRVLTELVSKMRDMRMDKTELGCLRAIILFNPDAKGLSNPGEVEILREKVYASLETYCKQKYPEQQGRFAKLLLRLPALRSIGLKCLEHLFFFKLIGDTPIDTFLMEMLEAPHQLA
Put plainly: Receptor binding, RXRβ. The conditions noted are these: tritiated retinoid competition.

Test [4] has as its target T4, RXRγ (Mus musculus, UniProt P28705).
T4 construct: expressed in transfected cells; host or cells: CV-1 (African green monkey kidney fibroblasts)
T4 sequence (P28705 1-463): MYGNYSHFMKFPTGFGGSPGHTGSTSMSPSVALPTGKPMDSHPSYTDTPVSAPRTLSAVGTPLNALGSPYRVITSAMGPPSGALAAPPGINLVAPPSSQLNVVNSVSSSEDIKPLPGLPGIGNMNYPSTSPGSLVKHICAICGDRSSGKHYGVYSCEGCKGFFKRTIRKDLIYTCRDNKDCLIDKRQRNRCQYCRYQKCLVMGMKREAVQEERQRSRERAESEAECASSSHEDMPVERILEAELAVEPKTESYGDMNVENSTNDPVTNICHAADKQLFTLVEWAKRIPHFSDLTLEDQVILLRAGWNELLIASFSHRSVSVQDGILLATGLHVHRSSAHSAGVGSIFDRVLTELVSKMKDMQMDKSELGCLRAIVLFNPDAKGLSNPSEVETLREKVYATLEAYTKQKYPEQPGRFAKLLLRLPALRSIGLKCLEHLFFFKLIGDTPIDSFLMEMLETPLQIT
Put plainly: Receptor binding, RXRγ. The note with it: tritiated retinoid competition.

In test [5] the target is T1, RARβ. Briefly: Co-transfection assay, RARβ agonist activity. It counts as cell-based. More on the design: expressed in transfected cells; host or cells: CV-1 (African green monkey kidney fibroblasts). The conditions noted are these: CV-1 cells, luciferase reporter, read-out: RARβ Pot.
For test [6], the target named is T5, RXRα (Homo sapiens, UniProt P19793).
T5 sequence (P19793 1-462): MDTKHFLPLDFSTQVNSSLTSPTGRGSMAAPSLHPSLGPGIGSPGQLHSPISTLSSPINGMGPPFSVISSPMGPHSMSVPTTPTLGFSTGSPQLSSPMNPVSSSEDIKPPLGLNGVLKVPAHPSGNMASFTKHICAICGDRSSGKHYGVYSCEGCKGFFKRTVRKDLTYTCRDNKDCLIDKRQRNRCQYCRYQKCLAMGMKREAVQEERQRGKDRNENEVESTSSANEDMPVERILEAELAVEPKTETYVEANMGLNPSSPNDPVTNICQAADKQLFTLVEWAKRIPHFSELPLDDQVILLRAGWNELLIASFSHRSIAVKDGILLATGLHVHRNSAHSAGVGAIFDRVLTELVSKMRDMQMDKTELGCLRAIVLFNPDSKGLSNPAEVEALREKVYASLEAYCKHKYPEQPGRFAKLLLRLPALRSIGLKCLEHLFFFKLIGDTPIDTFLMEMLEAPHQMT
Put plainly: Receptor binding, RXRα. The note with it: tritiated retinoid competition.

The target in test [7] is T4, RXRγ. Briefly: Co-transfection assay, RXRγ agonist activity. The format is cell-based. The conditions noted are these: CV-1 cells, luciferase reporter, read-out: RXRγ Pot.
The target of test [8] is T2, RARγ. Briefly: Receptor binding, RARγ. The conditions noted are these: tritiated retinoid competition.

Structures are written as SMILES.

Take `CC(/C=C/CC1(c2ccc3c(c2)C(C)(C)CCC3(C)C)CCCC1)=C\C(=O)O` [Compound 108, (2E, 4E)-6-[(5,5,8,8-Tetramethyl-5,6,7,8-tetrahydronaphtha-len-2-yl)cyclopentane-1-yl]-3-methyl hexadienoic acid]: the Kd in test [1] is > 5000 nM; in test [3] it was 357 nM; in test [4], 128 nM; in test [6], 41 nM; in test [8], > 5000 nM. Also, the EC50 was > 10000 nM in test [2], > 10000 nM in test [5] and 66 nM in test [7].

As for `CC(/C=C/CC1(c2ccc3c(c2)C(C)(C)CCC3(C)C)CC1)=C\C(=O)O` [Compound 101, (2E, 4E)-6-[1-(5,5,8,8-Tetramethyl-5,6,7,8-tetrahydronaphtha-len-2-yl)cyclopropanyl]-3-methyl hexadienoic acid], the dissociation constant Kd came out at 463 nM in test [1]; 6 nM in test [3]; 8 nM in test [4]; 2 nM in test [6]; 552 nM in test [8]. The EC50 in test [2] turned out to be 24 nM; in test [5], 17 nM; in test [7] it was 14 nM.

Take `CC(/C=C/CC1(c2cc(C(C)(C)C)cc3c2CCC3(C)C)CC1)=C\C(=O)O` [Compound 107, (2E, 4E)-6-[1-(6-t-butyl-1,1-dimethyl-indan-4-yl)-cyclopropyl]-3-methyl hexadienoic acid]: the Kd in test [1] was > 5000 nM; in test [3], 15 nM; in test [4], 22 nM; in test [6] it was 6 nM; in test [8], > 5000 nM. The figures for the EC50 in test [2], in test [5] and in test [7] were > 10000 nM, > 10000 nM and 20 nM, respectively.
